In paper PMC5066224, “A Novel Resveratrol Based Tubulin Inhibitor Induces Mitotic Arrest and Activates Apoptosis in Cancer Cells” (Scientific Reports, 2016):

Experiments:
purified Tubulin = assay: Fluorescence binding study, double reciprocal plot; conditions: double reciprocal plot of fluorescence data, 1:1 binding, 30 °C, ± SEM; read-out: dissociation constant (Kd)
Method: Fluorescence spectral measurements were performed using Infinite M200 PRO microplate reader (Tecan Group Ltd., Switzerland). Briefly, SS28 (10 μM) was preincubated with increasing concentration of Tubulin (10, 25, 50, 100, 500 and 1000 nM) at 30 °C for 30 min. SS28 Tubulin complex was then scanned for the emission spectra from 345 to 545 nm at 315 nm excitation range. Resulting fluorescence intensity was plotted as the function of wavelength.
The dissociation constant (Kd) was determined using double reciprocal plot of change in fluorescence of SS28 (1/Δ(F0-F)) as a function of protein concentration by the method of Benesi and Hildebrand assuming a 1:1 binding of SS28 to Tubulin[48]. The spectral measurements were recorded three times and SEM was calculated.

CEM cells = assay: Mitochondrial membrane potential (JC-1 staining, flow cytometry); type: cell-based, Human; conditions: CEM, 1, 5, 10, 20 μM, 48 h
Method: Flow cytometric analysis of cells stained with JC-1 was used to measure changes in mitochondrial transmembrane potential as described. Briefly, cells were seeded at a density of 1 × 10^5 cells/ml and treated with SS28 (1, 5, 10 and 20 μM). After 48 h, cells were harvested, washed and incubated with JC-1 (5,5′,6,6 tetrachloro-1,1′,3,3′-tetraethyl benzimidazol carbocyanine iodide; Calbiochem, USA) for 15 min. 2,4-Dinitrophenol-treated cells (2,4-DNP) served as the positive control. Cells were processed and analyzed by flow cytometry using CellQuest pro software with an excitation at 488 nm laser and emission at 530 nm. JC-1 monomers emit at 530 nm and J-aggregates emit at 590 nm.

A549 cells = assay: Cell cycle phase distribution by flow cytometry; type: cell-based, human; conditions: A549, 5 μM, 6 to 24 h
Method: Cell cycle analysis by flow cytometry was performed as previously described. Briefly, 75,000 cells/ml (A549) were seeded in 6 well plates and grown in serum free medium for 18 h. After synchronisation, the cells were treated with 5 μM of SS28 (6, 12, 18, 24 and 30 h) and cells were processed as described before. Similarly, CEM cells (75,000 cells/ml) were treated with SS28 (2 μM) and harvested (6, 12, 18, 24 and 30 h) and processed. Following fixation, cells were resuspended in PBS and stained with propidium iodide and evaluated in a flow cytometer (FACS Calibur, Becton Dickinson) using Cell Quest Pro software using excitation 488 nm laser and emission at 560/570 nm. A minimum of 10,000 cells were acquired per sample and histograms were analysed using WinMDI 2.8 software.

[1] = In vivo pharmacokinetics, HPLC of plasma; set-up: species or system BALB/c mice; conditions: mice, intraperitoneal, 15 mg/kg
Method: Control and SS28 (15 mg/kg b.wt.) treated BALB/c mice were sacrificed and blood was collected at various time points (15, 30 min, 1 and 2 h; 2 each/time point) as described. Plasma (50 μl) was then extracted with acetonitrile, centrifuged (3,000 × g for 15 min) to remove precipitated proteins and the resulting supernatants were analyzed using HPLC (Waters, USA).
Standard solution of SS28 was prepared by dissolving increasing concentration (25 to 100 μM) of the compound in acetonitrile. Standard calibration curves were plotted using peak area against the concentration of the compound and the retention time of the compound was also determined. Plasma concentrations of the treated groups were extrapolated from standard curves constructed by linear regression in Graph-Pad Prism 4.0 software (GraphPad Software, Inc.).

Kd (purified Tubulin): 414 ± 110 nM | level of SS28 in the plasma ([1]; 15 min and 1 h post-treatment): detectable | level of SS28 in the plasma ([1]; 30 min after the injection): significant increase | level of SS28 in the plasma ([1]; after 1 h of treatment): significant decrease
Compound: COc1cc(/C=C/c2ccc(C)cc2)cc(OC)c1OC [SS28, (E)-1,2,3-trimethoxy-5-(4-methylstyryl)benzene]
mitochondrial membrane potential (JC-1 fluorescence) (CEM cells): concentration dependant increase in the green fluoresced cells | cell cycle distribution (A549 cells): significant accumulation of cells at G2/M phase
